Reference: article PMC3350394, “Kinetic analysis and test-retest variability of the radioligand [^11C](R)-PK11195 binding to TSPO in the human brain - a PET study in control subjects” (EJNMMI Research, 2012)
Several values for one entry are separate records, joined by “and”; a condition that tells them apart may be missing. Equal entries are not always repeated.

Legend:
TSPO = TSPO (Homo sapiens, UniProt P30536); test: PET, modified 2TCM with shared K1/k2; assay type: in vivo; set-up: from tissue; host or cells: living human brain (in vivo PET in six control subjects); details: first PET measurement
Protocol: In addition, data were analysed using a modified 2TCM model which fitted parameters K1/k2, k2, k3 and k4 of the model to several TACs simultaneously in a way that the parameter K1/k2 was shared between regions. First, all ROIs primarily consisting of the grey matter, including the ROI of the typical GM uptake, were fitted in this way then followed by a fit involving white matter regions and, again, the ROI of the typical GM uptake. The ROI of the typical GM uptake was used in the second fitting session to allow for a coupling of K1/k2 between that region and white matter ROIs. However, the parameters obtained for the typical GM ROI in the first session were retained for final analysis.

ABCC1 = tested on: ABCC1; set-up: method as in PMID 19948230; details: cited from earlier work
[1] = cortical grey matter, individual subjects 1-6
[2] = cortical grey matter, mean of 6 subjects
[3] = white matter, individual subjects 1-6
[4] = white matter, mean of 6 subjects

Chain of TSPO (P30536 whole entry): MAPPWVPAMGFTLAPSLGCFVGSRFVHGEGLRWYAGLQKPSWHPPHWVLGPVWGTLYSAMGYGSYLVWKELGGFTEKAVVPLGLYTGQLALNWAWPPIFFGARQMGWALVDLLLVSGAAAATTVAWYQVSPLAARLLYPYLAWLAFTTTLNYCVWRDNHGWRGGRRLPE

CC[C@@H](C)N([11CH3])C(=O)c1cc2ccccc2c(-c2ccccc2Cl)n1 [[^11C](R)-PK11195]
k2 (TSPO; cortical grey matter): 0.228 min⁻¹
k3 (TSPO; cortical grey matter): 0.053 min⁻¹
K1 (TSPO; [1]): 0.050 mL/cc/min and 0.092 mL/cc/min and 0.070 mL/cc/min and 0.089 mL/cc/min and 0.046 mL/cc/min and 0.080 mL/cc/min
k2 (TSPO; [1]): 0.180 min⁻¹ and 0.236 min⁻¹ and 0.228 min⁻¹ and 0.307 min⁻¹ and 0.185 min⁻¹ and 0.235 min⁻¹
k3 (TSPO; [1]): 0.021 min⁻¹ and 0.055 min⁻¹ and 0.046 min⁻¹ and 0.124 min⁻¹ and 0.035 min⁻¹ and 0.036 min⁻¹
k4 (TSPO; [1]): 0.014 min⁻¹ and 0.054 min⁻¹ and 0.025 min⁻¹ and 0.061 min⁻¹ and 0.026 min⁻¹ and 0.020 min⁻¹
K1 (TSPO; [2]): 0.071 mL/cc/min
k4 (TSPO; [2]): 0.033 min⁻¹
k2 (TSPO; white matter): 0.159 min⁻¹
k3 (TSPO; white matter): 0.036 min⁻¹
K1 (TSPO; [3]): 0.067 mL/cc/min and 0.056 mL/cc/min and 0.062 mL/cc/min and 0.032 mL/cc/min and 0.061 mL/cc/min and 0.036 mL/cc/min
k2 (TSPO; [3]): 0.169 min⁻¹ and 0.180 min⁻¹ and 0.159 min⁻¹ and 0.129 min⁻¹ and 0.182 min⁻¹ and 0.138 min⁻¹
k3 (TSPO; [3]): 0.040 min⁻¹ and 0.045 min⁻¹ and 0.046 min⁻¹ and 0.026 min⁻¹ and 0.033 min⁻¹ and 0.024 min⁻¹
k4 (TSPO; [3]): 0.033 min⁻¹ and 0.021 min⁻¹ and 0.027 min⁻¹ and 0.013 min⁻¹ and 0.012 min⁻¹
K1 (TSPO; [4]): 0.052 mL/cc/min
k4 (TSPO; [4]): 0.020 min⁻¹
substrate for ABC transporter (ABCC1): not a substrate
